Experimental data: patent EP4803513A1, “SUBSTITUTED QUINAZOLINE COMPOUND, PREPARATION METHOD THEREFOR, PHARMACEUTICAL COMBINATION THEREOF, AND USE THEREOF” (Hongyun Biotech Co., Ltd., priority 2023, dated 2025)

Columns and labels:
Assay type in all cases: cell-based
BRK-BaF3 cells = assay: Cell antiproliferative activity assay (CCK-8), BRK-BaF3; conditions: 72 h, CCK-8, 3 days incubation
In short: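 Growth inhibition over 3 days, with compound serially diluted 3-fold from a 10 µM top concentration. Cells seeded at 100,000 cells/mL; WT-BaF3 medium carried 10% WEHI supernatant as the IL-3 source. Viability read by CCK-8 OD450 after 2-4 h; IC50 from blank-subtracted curve fit.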

WT-BaF3 cells = assay: Cell antiproliferative activity assay (CCK-8), WT-BaF3 (broad-spectrum cytotoxicity); conditions: 72 h; WT-BaF3 cells (IL-3 supplemented), CCK-8, 3 days incubation
Method: The activity of compounds against BRK kinase can be evaluated by their inhibition of the growth of the BRK kinase-stably transfected BaF3 cell line (BRK-BaF3) and wild-type BaF3 cells (WT-BaF3). […] The larger the ratio of the half-maximal growth inhibitory concentration (IC50) of a compound between WT-BaF3 and BRK-BaF3 cells, the better the selectivity of the compound.
(§1) BRK-BaF3, WT-BaF3, WEHI cell line, and breast cancer cell line T47D were cultured using RPMI 1640 Basal medium or DMEM (Dulbecco's Modified Eagle Medium) (Shanghai Peiyuan Biotechnology, L220KJ), supplemented with 10% FBS (Gibco, REF 10099-141C) and 1% P/S (Shanghai Peiyuan Biotechnology, S110JV), in an incubator (Thermo 3020) at 37°C with 5% CO2. Cell viability was above 95%. Cells were passaged at a 3:1 ratio every 3-4 days. For WT-BaF3 cells, WEHI cells were first cultured, and their culture supernatant was filtered through a 0.22 µm filter. This supernatant was added at 10% to the regular culture medium to supplement IL-3 required for WT-BaF3 cell proliferation, which served as the culture medium for WT-BaF3. For testing, cells were first collected and counted, then prepared into a cell suspension at 100,000 cells/mL and plated at 100 µL per well. Drug concentrations started from 10 µM and were serially diluted 3:1. After incubation for 3 days, 20 µL of CCK-8 detection reagent (Targetmol C005) was added to each well. After incubation for 2-4 hours, OD450 was measured using a microplate reader (Varioskan LUX, Thermo Scientific). After subtracting the blank background, the curve was fitted and the IC50 was calculated using XLfit software.

T47D cells = assay: Cell antiproliferative activity assay (CCK-8), T47D; conditions: Homo sapiens, 72 h, breast cancer cell line T47D, incubation for 3 days
Method: as §1
In addition, the following table exemplarily lists the IC50 values of some compounds of the present invention against T47D cells.

Row | Structure (SMILES) | IC50 (BRK-BaF3 cells) [nM] | IC50 (T47D cells) [nM] | IC50 (WT-BaF3 cells) [nM]
1 | Cc1nn(CCO)cc1Nc1ncc2cc(-c3ccnc(N)c3)cc(C(C)C)c2n1 [I-14] | ≤ 20 | 500 to 1000 | 500 to 2500
2 | Cc1nn(CCO)cc1Nc1ncc2cc(-c3cccnc3C)cc(C(C)C)c2n1 [I-22] | ≤ 20 | 500 to 1000 | 500 to 2500
3 | Cc1nn(CCO)cc1Nc1ncc2cc(-c3cccnc3N)cc(C(C)C)c2n1 [I-27] | ≤ 20 | 500 to 1000 | 500 to 2500
4 | Cc1ccncc1-c1cc(C(C)C)c2nc(Nc3cn(CCO)nc3C)ncc2c1 [I-32] | ≤ 20 | ≤ 500 | 500 to 2500
5 | Cc1cnn(C)c1-c1cc(C(C)C)c2nc(Nc3cn(CCO)nc3C)ncc2c1 [I-191] | ≤ 20 |  | 500 to 2500
6 | Cc1nc(P(C)(C)=O)ccc1Nc1ncc2cc(-c3nccnc3C)cc(C(C)C)c2n1 [II-1] | ≤ 20 |  | > 2500
7 | COc1nc(P(C)(C)=O)ccc1Nc1ncc2cc(-c3nccnc3C)cc(C(C)C)c2n1 [II-2] | ≤ 20 |  | > 2500
8 | Cc1nccnc1-c1cc(C(C)C)c2nc(Nc3ccc(P(C)(C)=O)nc3)ncc2c1 [II-3] | ≤ 20 |  | > 2500
9 | Cc1cc(P(C)(C)=O)ncc1Nc1ncc2cc(-c3nccnc3C)cc(C(C)C)c2n1 [II-4] | 20 to 100 |  | > 2500
10 | COc1cc(P(C)(C)=O)ncc1Nc1ncc2cc(-c3nccnc3C)cc(C(C)C)c2n1 [II-5] | ≤ 20 |  | > 2500
11 | Cc1cc(Nc2ncc3cc(-c4nccnc4C)cc(C(C)C)c3n2)cnc1P(C)(C)=O [II-6] | ≤ 20 |  | > 2500
12 | COc1cc(Nc2ncc3cc(-c4nccnc4C)cc(C(C)C)c3n2)cnc1P(C)(C)=O [II-7] | 20 to 100 |  | 500 to 2500
13 | Cc1nccnc1-c1cc(C(C)C)c2nc(Nc3ccc(P(C)(C)=O)cn3)ncc2c1 [II-8] | 20 to 100 |  | > 2500
14 | Cc1cc(Nc2ncc3cc(-c4nccnc4C)cc(C(C)C)c3n2)ncc1P(C)(C)=O [II-9] | 20 to 100 |  | > 2500
15 | Cc1nc(Nc2ncc3cc(-c4nccnc4C)cc(C(C)C)c3n2)ccc1P(C)(C)=O [II-10] | 20 to 100 |  | > 2500
16 | Cc1cc(P(C)(C)=O)ccc1Nc1ncc2cc(-c3nccnc3C)cc(C(C)C)c2n1 [II-13] | 20 to 100 |  | > 2500
17 | COc1cc(P(C)(C)=O)ccc1Nc1ncc2cc(-c3nccnc3C)cc(C(C)C)c2n1 [II-14] | ≤ 20 |  | > 2500
18 | CCc1cc(P(C)(C)=O)ccc1Nc1ncc2cc(-c3nccnc3C)cc(C(C)C)c2n1 [II-15] | ≤ 20 |  | > 2500
19 | Cc1nccnc1-c1cc(C(C)C)c2nc(Nc3ccc(P(C)(C)=O)c(Cl)c3F)ncc2c1 [II-17] | ≤ 20 |  | 500 to 2500
20 | Cc1cc(Nc2ncc3cc(-c4nccnc4C)cc(C(C)C)c3n2)c(F)cc1P(C)(C)=O [II-21] | ≤ 20 |  | 500 to 2500

Row | Structure (SMILES) | IC50 (BRK-BaF3 cells) [nM] | IC50 (T47D cells) [nM] | IC50 (WT-BaF3 cells) [nM]
21 | Cc1nccnc1-c1cc(C2CC2)c2nc(Nc3ccc(P(C)(C)=O)cc3)ncc2c1 [II-30] | ≤ 20 |  | 500 to 2500
22 | Cc1nccnc1-c1cc(C2CC2)c2nc(Nc3ccc(P(C)(C)=O)cc3F)ncc2c1 [II-31] | ≤ 20 |  | > 2500
23 | COc1nc(P(C)(C)=O)ccc1Nc1ncc2cc(-c3nccnc3C)cc(C3CC3)c2n1 [II-32] | ≤ 20 |  | 500 to 2500
24 | Cc1nccnc1-c1cc(C(F)(F)F)c2nc(Nc3ccc(P(C)(C)=O)cc3)ncc2c1 [II-34] | ≤ 20 |  | > 2500
25 | Cc1nccnc1-c1cc(C(F)(F)F)c2nc(Nc3ccc(P(C)(C)=O)cc3F)ncc2c1 [II-35] | 20 to 100 |  | > 2500
26 | Cc1ncnc(C)c1-c1cc(C(C)C)c2nc(Nc3ccc(P(C)(C)=O)nc3)ncc2c1 [II-42] | 20 to 100 |  | > 2500
27 | Cc1cc(P(C)(C)=O)ncc1Nc1ncc2cc(-c3c(C)ncnc3C)cc(C(C)C)c2n1 [II-43] | 20 to 100 |  | > 2500
28 | COc1cc(P(C)(C)=O)ncc1Nc1ncc2cc(-c3c(C)ncnc3C)cc(C(C)C)c2n1 [II-44] | 20 to 100 |  | > 2500
29 | Cc1cc(Nc2ncc3cc(-c4c(C)ncnc4C)cc(C(C)C)c3n2)cnc1P(C)(C)=O [II-45] | ≤ 20 |  | > 2500
30 | Cc1ncnc(C)c1-c1cc(C(C)C)c2nc(Nc3ccc(P(C)(C)=O)cc3)ncc2c1 [II-50] | 20 to 100 |  | > 2500
31 | COc1cc(P(C)(C)=O)ccc1Nc1ncc2cc(-c3c(C)ncnc3C)cc(C(C)C)c2n1 [II-53] | 20 to 100 |  | > 2500
32 | COc1cc(Nc2ncc3cc(-c4c(C)ncnc4C)cc(C(C)C)c3n2)ccc1P(C)(C)=O [II-54] | ≤ 20 |  | > 2500
33 | Cc1ncnc(C)c1-c1cc(C(C)C)c2nc(Nc3ccc(P(C)(C)=O)c(C)c3F)ncc2c1 [II-56] | ≤ 20 |  | > 2500
34 | Cc1cc(Nc2ncc3cc(-c4c(C)ncnc4C)cc(C(C)C)c3n2)c(F)cc1P(C)(C)=O [II-59] | 20 to 100 |  | > 2500
35 | COc1cc(Nc2ncc3cc(-c4cccnc4)cc(C4CC4)c3n2)ccc1P(C)(C)=O [II-65] |  | ≤ 500 | 
36 | COc1cc(Nc2ncc3cc(-c4cnccc4C)cc(C4CC4)c3n2)ccc1P(C)(C)=O [II-66] |  | ≤ 500 | 
37 | Cc1nccnc1-c1cc(C)c2nc(Nc3ccc(P(C)(C)=O)cc3)ncc2c1 [II-68] | 20 to 100 |  | > 2500
38 | COc1cc(Nc2ncc3cc(-c4nccnc4C)cc(C(C)C)c3n2)cc(OC)c1P(C)(C)=O [II-73] | ≤ 20 |  | 500 to 2500
39 | Cc1nccnc1-c1cc(C2CC2)c2nc(Nc3ccc(P(C)(C)=O)c(O)c3)ncc2c1 [II-75] | ≤ 20 |  | > 2500
40 | Cc1nccnc1-c1cc(C2CC2)c2nc(Nc3cc(O)c(P(C)(C)=O)cc3F)ncc2c1 [II-76] | ≤ 20 |  | > 2500

More lines, main results first:

Row | IC50 (BRK-BaF3 cells) [nM] | IC50 (T47D cells) [nM] | Structure (SMILES) | IC50 (WT-BaF3 cells) [nM]
41 | ≤ 20 |  | Cc1c[nH]c(=O)cc1-c1cc(C(C)C)c2nc(Nc3cnn(C4COC4)c3C)ncc2c1 [III-41] | > 2500
42 | ≤ 20 |  | Cc1c[nH]c(=O)cc1-c1cc(C2CC2)c2nc(Nc3cnn(C4COC4)c3C)ncc2c1 [III-83] | > 2500
43 | ≤ 20 |  | Cc1nn(C)cc1Nc1ncc2cc(-c3c(C#N)cnn3C)cc(C(C)C)c2n1 [III-86] | > 2500
44 | ≤ 20 |  | Cc1nn(C)cc1Nc1ncc2cc(-c3c(C)ncnc3C)cc(C(C)C)c2n1 [III-93] | > 2500
45 | ≤ 20 |  | COCCn1cc(Nc2ncc3cc(-c4c(C)ncnc4C)cc(C(C)C)c3n2)c(C)n1 [III-94] | > 2500
46 | 20 to 100 |  | Cc1nn(C2COC2)cc1Nc1ncc2cc(-c3c(C)ncnc3C)cc(C(C)C)c2n1 [III-95] | 500 to 2500
47 | 20 to 100 |  | Cc1nn(CC(N)=O)cc1Nc1ncc2cc(-c3cncnc3C)cc(C(C)C)c2n1 [III-96] | > 2500
48 | 20 to 100 |  | Cc1nn(C2COC2)cc1Nc1ncc2cc(-c3c(C)ncnc3C)cc(C3CC3)c2n1 [III-98] | 500 to 2500
49 | ≤ 20 |  | Cc1nn(C2COC2)cc1Nc1ncc2cc(-c3nccnc3C)cc(C(C)C)c2n1 [III-104] | > 2500
50 | ≤ 20 |  | Cc1nn(C2CCN(C)CC2)cc1Nc1ncc2cc(-c3nccnc3C)cc(C(C)C)c2n1 [III-106] | 500 to 2500
51 | ≤ 20 |  | Cc1nccnc1-c1cc(C(C)C)c2nc(Nc3cnn(C4CCN(C)CC4)c3C)ncc2c1 [III-107] | > 2500
52 | ≤ 20 |  | Cc1nn(CCN)cc1Nc1ncc2cc(-c3nccnc3C)cc(C(C)C)c2n1 [III-108] | 100 to 500
53 | ≤ 20 |  | CCN(C)CCn1cc(Nc2ncc3cc(-c4nccnc4C)cc(C(C)C)c3n2)c(C)n1 [III-109] | > 2500
54 | ≤ 20 |  | COCCN(C)CCn1cc(Nc2ncc3cc(-c4nccnc4C)cc(C(C)C)c3n2)c(C)n1 [III-110] | > 2500
55 | ≤ 20 |  | Cc1nn(CC(N)=O)cc1Nc1ncc2cc(-c3nccnc3C)cc(C(C)C)c2n1 [III-111] | > 2500
56 | 20 to 100 |  | Cc1nn(CCN=S(C)(C)=O)cc1Nc1ncc2cc(-c3nccnc3C)cc(C(C)C)c2n1 [III-112] | > 2500
57 | ≤ 20 |  | Cc1nn(C2COC2)cc1Nc1ncc2cc(-c3nccnc3C)cc(C3CC3)c2n1 [III-113] | 500 to 2500
58 | ≤ 20 |  | Cc1nn(CC(N)=O)cc1Nc1ncc2cc(-c3nccnc3C)cc(C3CC3)c2n1 [III-114] | 500 to 2500
59 | 20 to 100 |  | Cc1nn(C)cc1Nc1ncc2cc(-c3cncc(F)c3C(N)=O)cc(C(C)C)c2n1 [III-127] | > 2500
60 | ≤ 20 |  | Cc1nn(CC(N)=O)cc1Nc1ncc2cc(-c3cccnc3C)cc(C(C)C)c2n1 [III-128] | > 2500
